The numbers were not newly measured in article PMC7993281 (Clinical and Translational Science, 2020), which cites them from elsewhere.

The series concerns plasma GlcCer. The settings on record: healthy subjects; cited from earlier work.

As for `CC(C)(NC(=O)O[C@@H]1CN2CCC1CC2)c1csc(-c2ccc(F)cc2)n1` [venglustat], the “decrease of plasma GlcCer” value is “up to 80%”.
